In patent publication US5658880A, “Sialic acid/fucose based medicaments” (Glycomed Incorporated, priority 1994, dated 1997):

Tests used:
P-selectin = assay: ELISA: inhibition of P-selectin-IgG chimera binding to 2,3 sLe^x glycolipid; set-up: species or system human; conditions: inhibition of binding to 2,3 sLex glycolipid
Excerpt: (§1) An ELISA assay is preferably used that employs recombinant fusion proteins composed of extracellular portions of the human selectins joined to human immunoglobulin heavy chain CH3, CH2, and hinge regions. See, for example, Walz et al., Science (1990) 250:1132; Aruffo et al., Cell (1991) 67:35; Aruffo et al., Proc. Natl. Acad. Sci. USA. (1992) 89:2292. The assay is well known in the art, and generally consists of the following three steps:
I. 2,3 sLe^x glycolipid (25 picomole/well) was transferred into microtiter wells as solutions and then evaporated off. Excess, which remained unattached, was washed off with water. The wells were then blocked with 5% BSA at room temperature for an hour and then washed with PBS containing 1 mM calcium.
II. Preparation of "multivalent" receptor of the Selectin-lgG chimera was carried out by combining the respective chimera (1 μg/mL) with biotin labelled goat F(ab')2 anti-human IgG (Fc specific) and streptavidin-alkaline phosphatase diluted 1:1000 in 1% BSA-PBS (1 mM calcium) and incubating at 37° C. for 15 min. This allowed the soluble multivalent receptor complex to form. III. Potential inhibitors such as the compounds of formula I or II were allowed to react with the soluble receptor at 37° C. for 45 min. This test assumes that optimal binding, between the soluble phase receptor complex and the inhibitor (non natural ligand), would have occurred within this time frame. This solution was then placed in the microtiter wells that were prepared in step I. The plate was incubated at 37° C. for 45 minutes to allow the soluble receptor to bind to its natural ligand. In the presence of a strong inhibitor only a few receptors should be free to bind to the microtiter plate coated with the natural ligand.
The positive control is the signal produced by the soluble receptor when it is allowed to react with 2,3 sLe^x glycolipid in the microtiter wells in the absence of any inhibitor. This positive control was considered 100% binding. The signal produced by the receptor that had been previously treated with an inhibitor (recorded as O.D.), was divided by the signal produced by the positive control and multiplied by 100 to calculate the % receptor bound to the well in the presence of the inhibitor. The reciprocal of this number is the % inhibition.
as §1, with “was employed” for “is preferably used”, “uses” for “employs”, “USA” for “USA.”
II. Preparation of "multivalent" receptor of the Selectin-IgG chimera was carried out by combining the respective chimera 1 μg/ml) with biotin labelled goat F(ab')2 anti-human IgG (Fc specific) and streptavidin-alkaline phosphatase diluted 1:1000 in 1% BSA-PBS (1 mM calcium) and incubating at 37° C. for 15 min. This allowed the soluble multivalent receptor complex to form.
III. Potential inhibitors such as compounds of formula I or II were allowed to react with the soluble receptor at 37° C. for 45 min. This test assumes that optimal binding, between the soluble phase receptor complex and the inhibitor (non natural ligand), would have occurred within this time frame. This solution was then placed in the microtiter wells that were prepared in step I. The plate was incubated at 37° C. for 45 minutes to allow the soluble receptor to bind to its natural ligand. In the presence of a strong inhibitor only a few receptors should be free to bind to the microtiter plate coated with the natural ligand.
The positive control is the signal produced by the soluble receptor when it is allowed to react with 2,3 sLe^x glycolipid in the microtiter wells in the absence of any inhibitor. This was considered 100% binding. […]

human neutrophils = assay: Reperfusion injury assay: complement-induced human neutrophil adhesion in rabbit isolated heart; set-up: species or system human neutrophils; New Zealand White rabbit heart; conditions: 4% normal human plasma, 0.1 mg/ml (0.001, 0.01 and 0.1 mg/ml tested), read-out: % Neutrophil Inhibition (neutrophil accumulation)
Excerpt: Experiments were done to determine the effectiveness of compound 7 in decreasing adhesion of human neutrophils in the rabbit isolated heart. Addition of the human plasma to the rabbit isolated heart results in activation of the complement components found within the plasma, which in turn promotes an increase in the neutrophil accumulation. This model is used to determine the effect of sLe^x analogues on inhibiting complement-induced neutrophil adhesion. Hearts from New Zealand White rabbits were excised, mounted on a modified Langendorff apparatus and perfused with Krebs-Heinseleit buffer. Cardiac functional parameters were monitored upon a Grass Model 79D polygraph machine. 4% normal human plasma (NHP) was added to the recirculating buffer. Ten minutes after the addition of the plasma, 13b (0.1 mg/ml) was added to the perfusate. After 15 minutes of perfusion with the plasma, 51-chromium labelled human neutrophils (1×10^5 /ml) were added to the perfusate and allowed to recirculate for an additional 15 minutes. At the end of this time the hearts were washed with fresh buffer to remove non-specifically bound neutrophils, dried and counted in a well type gamma-counter. A concentration response curve was generated using concentrations of 0.001, 0.01 and 0.1 mg/ml. […] Table 3 lists the results, expressed as the percent inhibition of neutrophil accumulation.

IC50 (P-selectin): > 4 mM
SMILES: CC(=O)NC1C(O)CC(OCCCCCCOC2OC(C)C(O)C(O)C2O)(C(=O)O)OC1C(O)C(O)CO [Compound 7, 1-O-α-Neu5Ac-(6-O-α-L-Fucopyranosyl)-Hexane]
inhibition at 100 µg/mL (human neutrophils): 30%
